The experiment has as its system TCR 47BE7. Briefly: IFNγ intracellular cytokine staining of tgTCR 47BE7 CD8^+ T cells stimulated with peptide. The class given is cell-based, mouse. Conditions: for EC50: tgTCR 47BE7 CD8^+ T cells, titrated peptide and αCD28, 6 hours, ICS. The procedure: Fig. 2 | Neoantigen-reactive CD8^+ T cells recognise cognate peptide in vitro and in vivo. a, Table detailing attributes of tumour-reactive T cell receptors (TCRs), including neoantigen-reactive (top) and tumour-associated antigen-reactive (TAA-reactive) (bottom) TCRs isolated upon vaccination. b, Neoantigen-reactive CD8^+ T cell responses were induced by vaccination; isolated tetramer^+ T cells were stimulated for 6 hours with (varying concentrations of) cognate peptide and αCD28 and subsequently analyzed via intracellular staining (ICS) flow cytometry for IFNγ expression. c, Transgenic (tg)TCR CD8^+ T cells were co-incubated with varying concentrations of cognate mutant (MT) peptide or wild type (WT) peptide (x-axis) and αCD28 for 6 hours; intracellular staining (ICS) was performed subsequently. Percentage of T cells expressing IFNγ of a parent CD3^+CD8^+ population is shown on y-axis, normalised to maximum IFNγ expression. MT peptide values are shown as clear circles, and WT as filled, black circles. […] TgTCR CD8^+ T cells expressing the indicated TCR were stimulated, as described in c, with titrated mutant (MT) or wild-type (WT) peptide and IFNγ production was measured by ICS. […] Cytokine production was measured by intracellular staining (ICS) flow cytometry (n=3/condition). […] Heatmap shown summarises the frequency of CD8^+tgTCR^+IFγ^+. f, C57BL/6 mice (n=16–26/group) were treated with Hsf2 neoantigen vaccine or PBS (mock) in accordance with timeline shown (top). tumour growth was monitored via external caliper measurement and plotted versus time since tumour inoculation (bottom). g, Tetramer staining on CD3^+ CD8^+ T cells isolated from tumour-infiltrating lymphocytes (TIL) or peripheral blood mononuclear cells (PBMCs) from mice vaccinated with each of the neoantigens listed, using same methodology as described in b. h, Schematic describing administration of ACT in vivo. […]
Fig. 4 | Structure of the pMHC-TCR ternary complex. a, Kinetics of TCR-47BE7 binding to immobilised H2-D^b/Hsf2 p.K72N as determined by biolayer interferometry. […]

One may read the EC50 as the midpoint of the concentration-response curve.

Like-named read-outs stand apart in the source and are kept apart here.

Regarding `CC[C@H](C)[C@H](NC(=O)[C@H](Cc1c[nH]cn1)NC(=O)[C@@H](NC(=O)[C@@H](NC(=O)[C@H](CC(N)=O)NC(=O)[C@H](CCCNC(=N)N)NC(=O)[C@H](Cc1ccccc1)NC(=O)CNC(=O)[C@@H](N)Cc1ccc(O)cc1)C(C)C)C(C)C)C(=O)O` [Hsf2 p.K72N68–76], the EC50 (n=3, read-out: functional avidity, half-maximal IFNγ production (EC50)) was determined as 5.61e-06 µM.
With `CC[C@H](C)[C@H](NC(=O)[C@H](Cc1c[nH]cn1)NC(=O)[C@@H](NC(=O)[C@@H](NC(=O)[C@H](CCCCN)NC(=O)[C@H](CCCNC(=N)N)NC(=O)[C@H](Cc1ccccc1)NC(=O)CNC(=O)[C@@H](N)Cc1ccc(O)cc1)C(C)C)C(C)C)C(=O)O` [Hsf2_68–76], the “cytokine production on a per-cell basis at saturating peptide concentrations” value (MT versus WT peptide) was “partial agonist only”. Besides, the EC50 (95%CI NR, read-out: half-maximal IFNγ production (EC50)) worked out at 8.7 µM.

For the origin of these results see publication PMC9915759, “Structural Basis for Self-Discrimination by Neoantigen-Specific TCRs” (Research Square, 2023).
